Measurements: patent US11331299B2, “Medicinal use of serrulatane diterpenes” (The University of Sydney, priority 2016, dated 2022)
Read-outs that look alike come from different tables or passages of the source.

How the values were obtained:
Deacetylase, Histone 9 = Deacetylase, Histone 9 (Homo sapiens, UniProt Q9UKV0); assay: Deacetylase, Histone 9 (PanLab); assay type: biochemical; conditions: assay year 2014, read-out: % Control Response
H3K9 ac (increase) = assay: Cell-based stimulation assay; conditions: 10 μM
[1] = biological target: Deacetylase, Sirtuin SIRT6 (Homo sapiens, UniProt Q8N6T7); assay: Deacetylase, Sirtuin SIRT6 (PanLab); assay type: biochemical; conditions: assay year 2014, read-out: % Control Response
Deacetylase, Histone 6 = Deacetylase, Histone 6 (Homo sapiens, UniProt Q9UBN7); assay: Deacetylase, Histone 6 (PanLab); assay type: biochemical; conditions: assay year 2014, read-out: % Control Response
SETDB1 (h) = SETDB1 (h) (Homo sapiens, UniProt Q15047); assay: Epigenetic enzyme assay, Methyltransferases (MTs); assay type: biochemical; conditions: for inhibition at 10 µM: read-out: % Inhibition of Control Values
[2] = system: Chemokine CXCR1/2 (IL-8, Non-Selective); assay: Chemokine CXCR1/2 (IL-8, Non-Selective) radio ligand binding; set-up: species or system Human; conditions: 10 μM; assay year 2015
Method: (§1) The in vitro pharmacological studies were conducted by Eurofins PanLab (Taiwan) using the parameters shown in Table 13 with respect to appropriate literature references.

Deacetylase, Histone 7 = Deacetylase, Histone 7 (Homo sapiens, UniProt Q8WUI4); assay: Deacetylase, Histone 7 (PanLab); assay type: biochemical; conditions: assay year 2014, read-out: % Control Response
Histamine H4 = biological target: T1, Histamine H4 (Homo sapiens, UniProt Q9H3N8); assay: Histamine H4 radio ligand binding
T1 construct: expressed in transfected cells; host or cells: Chem-1 cells
Method: as §1

H3K27 ac (increase) = assay: Cell-based stimulation assay; conditions: 10 μM
[3] = biological target: Nitric Oxide Synthase, Neuronal (nNOS) (Rattus norvegicus, UniProt P29476); assay: Nitric Oxide Synthase, Neuronal (nNOS); assay type: biochemical; conditions: assay year 2014, read-out: % Control Response
Deacetylase, Histone 3 = Deacetylase, Histone 3 (Homo sapiens, UniProt O15379); assay: Deacetylase, Histone 3 (PanLab); assay type: biochemical; conditions: assay year 2014, read-out: % Control Response
TIP60(h) = TIP60(h) (Homo sapiens, UniProt Q92993); assay: Epigenetic enzyme assay, Histone acetyltransferases (HATs); assay type: biochemical; conditions: read-out: % Inhibition of Control Values
[4] = biological target: Deacetylase, Sirtuin SIRT2 (Homo sapiens, UniProt Q8IXJ6); assay: Deacetylase, Sirtuin SIRT2 (PanLab); assay type: biochemical; conditions: assay year 2014, read-out: % Control Response
[5] = biological target: Deacetylase, Sirtuin SIRT1 (Homo sapiens, UniProt Q96EB6); assay: Deacetylase, Sirtuin SIRT1 (PanLab); assay type: biochemical; conditions: assay year 2014, read-out: % Control Response
Deacetylase, Histone 10 = Deacetylase, Histone 10 (Homo sapiens, UniProt Q969S8); assay: Deacetylase, Histone 10 (PanLab); assay type: biochemical; conditions: assay year 2014, read-out: % Control Response
Deacetylase, Histone 8 = Deacetylase, Histone 8 (Homo sapiens, UniProt Q9BY41); assay: Deacetylase, Histone 8 (PanLab); assay type: biochemical; conditions: assay year 2014, read-out: % Control Response
Deacetylase, Histone 4 = Deacetylase, Histone 4 (Homo sapiens, UniProt P56524); assay: Deacetylase, Histone 4 (PanLab); assay type: biochemical; conditions: assay year 2014, read-out: % Control Response
[6] = biological target: Deacetylase, Sirtuin SIRT3 (Homo sapiens, UniProt Q9NTG7); assay: Deacetylase, Sirtuin SIRT3 (PanLab); assay type: biochemical; conditions: assay year 2014, read-out: % Control Response
NSD3/WHSC1L1 (h) = biological target: T2, NSD3/WHSC1L1 (h) (Homo sapiens, UniProt Q9BZ95); assay: Epigenetic enzyme assay, Methyltransferases (MTs); assay type: biochemical; conditions: 10 μM; read-out: % Inhibition of Control Values
T2 sequence (Q9BZ95 1-1437): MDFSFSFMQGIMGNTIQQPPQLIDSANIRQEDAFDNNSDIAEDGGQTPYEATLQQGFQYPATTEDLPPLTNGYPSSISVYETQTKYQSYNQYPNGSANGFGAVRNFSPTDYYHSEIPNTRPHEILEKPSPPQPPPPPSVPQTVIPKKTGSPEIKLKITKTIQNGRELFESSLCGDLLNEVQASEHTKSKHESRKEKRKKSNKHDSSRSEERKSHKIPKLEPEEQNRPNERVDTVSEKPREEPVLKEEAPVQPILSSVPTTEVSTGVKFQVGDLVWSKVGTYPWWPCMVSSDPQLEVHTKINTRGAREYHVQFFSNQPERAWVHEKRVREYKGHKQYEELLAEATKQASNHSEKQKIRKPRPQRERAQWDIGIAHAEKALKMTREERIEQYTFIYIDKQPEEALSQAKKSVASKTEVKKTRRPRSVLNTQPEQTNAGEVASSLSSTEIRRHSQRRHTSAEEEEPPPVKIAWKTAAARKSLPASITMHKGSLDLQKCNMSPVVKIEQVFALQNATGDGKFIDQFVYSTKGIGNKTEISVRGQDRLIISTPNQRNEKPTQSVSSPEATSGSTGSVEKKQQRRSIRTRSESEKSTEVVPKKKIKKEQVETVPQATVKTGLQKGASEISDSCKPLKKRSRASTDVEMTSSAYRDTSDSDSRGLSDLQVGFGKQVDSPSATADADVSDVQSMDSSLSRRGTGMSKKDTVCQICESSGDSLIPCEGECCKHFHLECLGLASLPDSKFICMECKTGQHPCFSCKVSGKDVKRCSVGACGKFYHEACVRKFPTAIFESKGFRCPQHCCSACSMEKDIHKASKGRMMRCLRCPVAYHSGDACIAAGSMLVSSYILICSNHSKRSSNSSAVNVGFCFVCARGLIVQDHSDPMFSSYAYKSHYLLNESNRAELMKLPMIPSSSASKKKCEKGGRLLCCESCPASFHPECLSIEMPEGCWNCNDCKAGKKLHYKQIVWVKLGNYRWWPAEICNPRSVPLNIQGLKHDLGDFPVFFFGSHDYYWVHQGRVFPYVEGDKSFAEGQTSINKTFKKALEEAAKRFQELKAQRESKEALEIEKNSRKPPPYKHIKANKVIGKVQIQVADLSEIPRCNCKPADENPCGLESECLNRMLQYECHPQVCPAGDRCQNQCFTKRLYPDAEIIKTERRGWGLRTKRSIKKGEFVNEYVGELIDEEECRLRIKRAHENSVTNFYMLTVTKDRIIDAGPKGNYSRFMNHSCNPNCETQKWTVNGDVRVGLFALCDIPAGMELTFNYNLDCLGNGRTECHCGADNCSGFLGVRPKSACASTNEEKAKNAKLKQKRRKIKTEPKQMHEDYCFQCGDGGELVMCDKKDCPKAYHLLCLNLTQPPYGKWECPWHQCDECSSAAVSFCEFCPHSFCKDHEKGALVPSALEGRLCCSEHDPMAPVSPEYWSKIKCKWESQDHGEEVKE

SK-NEP-1 kidney = assay: OncoPanel cell proliferation assay (10-day); assay type: cell-based; conditions: Homo sapiens; for EC50: read-out: Cell Count EC50; for IC50: read-out: Cell Count IC50
[7] = assay year 2014, read-out: % Control Response
[8] = assay year 2015, read-out: % Control Response
[9] = SK-NEP-1, Kidney, read-out: Cell Count GI50

Sequence of TIP60(h) (Q92993 whole entry): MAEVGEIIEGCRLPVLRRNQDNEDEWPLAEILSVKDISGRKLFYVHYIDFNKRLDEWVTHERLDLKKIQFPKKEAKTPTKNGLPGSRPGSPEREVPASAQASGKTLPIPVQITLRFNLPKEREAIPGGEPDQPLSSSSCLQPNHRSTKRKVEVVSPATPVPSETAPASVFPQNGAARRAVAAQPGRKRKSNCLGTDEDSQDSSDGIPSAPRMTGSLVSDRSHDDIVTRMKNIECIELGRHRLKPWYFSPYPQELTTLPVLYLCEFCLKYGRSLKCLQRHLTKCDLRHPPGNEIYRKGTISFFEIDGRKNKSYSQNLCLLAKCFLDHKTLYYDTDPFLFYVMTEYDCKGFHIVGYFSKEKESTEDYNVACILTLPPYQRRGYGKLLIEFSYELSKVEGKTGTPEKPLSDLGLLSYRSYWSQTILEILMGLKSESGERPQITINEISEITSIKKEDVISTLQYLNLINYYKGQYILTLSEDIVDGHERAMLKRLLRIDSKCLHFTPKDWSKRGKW
T1 sequence (Q9H3N8 whole entry): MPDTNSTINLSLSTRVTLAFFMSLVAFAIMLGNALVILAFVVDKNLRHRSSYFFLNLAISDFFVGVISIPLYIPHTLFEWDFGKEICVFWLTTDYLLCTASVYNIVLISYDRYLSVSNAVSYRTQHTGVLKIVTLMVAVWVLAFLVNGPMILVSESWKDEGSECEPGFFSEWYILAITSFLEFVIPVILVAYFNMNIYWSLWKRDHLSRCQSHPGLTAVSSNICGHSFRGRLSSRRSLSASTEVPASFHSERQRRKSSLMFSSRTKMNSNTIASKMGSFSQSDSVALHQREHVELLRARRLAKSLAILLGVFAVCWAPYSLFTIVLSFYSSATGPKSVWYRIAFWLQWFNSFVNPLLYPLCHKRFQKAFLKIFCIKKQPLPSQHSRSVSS
Sequence of Deacetylase, Sirtuin SIRT2 (Q8IXJ6 whole entry): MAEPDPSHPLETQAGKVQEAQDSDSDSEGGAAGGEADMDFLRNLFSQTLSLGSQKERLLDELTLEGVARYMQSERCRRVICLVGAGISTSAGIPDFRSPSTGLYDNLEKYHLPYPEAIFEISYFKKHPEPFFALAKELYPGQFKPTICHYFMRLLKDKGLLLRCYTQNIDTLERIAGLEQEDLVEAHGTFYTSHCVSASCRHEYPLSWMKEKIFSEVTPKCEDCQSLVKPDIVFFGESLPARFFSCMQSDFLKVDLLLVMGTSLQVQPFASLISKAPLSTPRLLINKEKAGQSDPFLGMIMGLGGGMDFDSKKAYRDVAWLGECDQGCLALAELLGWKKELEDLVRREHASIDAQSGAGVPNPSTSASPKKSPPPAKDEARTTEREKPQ
Sequence of Deacetylase, Sirtuin SIRT6 (Q8N6T7 whole entry): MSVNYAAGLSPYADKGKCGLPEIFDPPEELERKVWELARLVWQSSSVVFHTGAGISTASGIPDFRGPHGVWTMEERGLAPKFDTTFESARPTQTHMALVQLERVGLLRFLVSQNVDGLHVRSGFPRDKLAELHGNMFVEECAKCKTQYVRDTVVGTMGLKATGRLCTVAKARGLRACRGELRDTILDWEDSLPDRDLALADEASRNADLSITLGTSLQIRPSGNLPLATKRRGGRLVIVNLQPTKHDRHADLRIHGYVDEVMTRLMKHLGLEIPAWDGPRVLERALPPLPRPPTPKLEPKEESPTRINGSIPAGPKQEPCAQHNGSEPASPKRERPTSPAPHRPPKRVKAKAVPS
Sequence of Deacetylase, Sirtuin SIRT1 (Q96EB6 whole entry): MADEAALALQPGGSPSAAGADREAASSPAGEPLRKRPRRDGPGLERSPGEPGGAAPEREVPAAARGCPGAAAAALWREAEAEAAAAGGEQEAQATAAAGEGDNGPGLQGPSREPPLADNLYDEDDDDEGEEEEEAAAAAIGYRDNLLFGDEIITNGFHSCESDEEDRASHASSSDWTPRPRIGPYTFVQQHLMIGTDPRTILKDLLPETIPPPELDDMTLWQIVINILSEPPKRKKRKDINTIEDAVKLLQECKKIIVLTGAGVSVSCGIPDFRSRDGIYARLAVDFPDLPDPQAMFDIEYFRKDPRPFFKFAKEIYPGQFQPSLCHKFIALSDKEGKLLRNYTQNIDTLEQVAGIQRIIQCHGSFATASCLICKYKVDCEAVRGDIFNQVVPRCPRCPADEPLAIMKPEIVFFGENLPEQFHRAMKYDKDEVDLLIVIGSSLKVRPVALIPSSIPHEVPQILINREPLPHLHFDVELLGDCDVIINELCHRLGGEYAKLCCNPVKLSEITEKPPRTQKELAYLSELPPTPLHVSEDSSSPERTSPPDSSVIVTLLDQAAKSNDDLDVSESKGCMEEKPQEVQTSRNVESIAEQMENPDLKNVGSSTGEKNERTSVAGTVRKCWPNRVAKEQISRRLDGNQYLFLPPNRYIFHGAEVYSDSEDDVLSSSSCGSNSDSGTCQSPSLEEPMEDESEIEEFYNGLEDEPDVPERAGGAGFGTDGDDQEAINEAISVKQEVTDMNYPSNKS
Sequence of Deacetylase, Histone 4 (P56524 whole entry): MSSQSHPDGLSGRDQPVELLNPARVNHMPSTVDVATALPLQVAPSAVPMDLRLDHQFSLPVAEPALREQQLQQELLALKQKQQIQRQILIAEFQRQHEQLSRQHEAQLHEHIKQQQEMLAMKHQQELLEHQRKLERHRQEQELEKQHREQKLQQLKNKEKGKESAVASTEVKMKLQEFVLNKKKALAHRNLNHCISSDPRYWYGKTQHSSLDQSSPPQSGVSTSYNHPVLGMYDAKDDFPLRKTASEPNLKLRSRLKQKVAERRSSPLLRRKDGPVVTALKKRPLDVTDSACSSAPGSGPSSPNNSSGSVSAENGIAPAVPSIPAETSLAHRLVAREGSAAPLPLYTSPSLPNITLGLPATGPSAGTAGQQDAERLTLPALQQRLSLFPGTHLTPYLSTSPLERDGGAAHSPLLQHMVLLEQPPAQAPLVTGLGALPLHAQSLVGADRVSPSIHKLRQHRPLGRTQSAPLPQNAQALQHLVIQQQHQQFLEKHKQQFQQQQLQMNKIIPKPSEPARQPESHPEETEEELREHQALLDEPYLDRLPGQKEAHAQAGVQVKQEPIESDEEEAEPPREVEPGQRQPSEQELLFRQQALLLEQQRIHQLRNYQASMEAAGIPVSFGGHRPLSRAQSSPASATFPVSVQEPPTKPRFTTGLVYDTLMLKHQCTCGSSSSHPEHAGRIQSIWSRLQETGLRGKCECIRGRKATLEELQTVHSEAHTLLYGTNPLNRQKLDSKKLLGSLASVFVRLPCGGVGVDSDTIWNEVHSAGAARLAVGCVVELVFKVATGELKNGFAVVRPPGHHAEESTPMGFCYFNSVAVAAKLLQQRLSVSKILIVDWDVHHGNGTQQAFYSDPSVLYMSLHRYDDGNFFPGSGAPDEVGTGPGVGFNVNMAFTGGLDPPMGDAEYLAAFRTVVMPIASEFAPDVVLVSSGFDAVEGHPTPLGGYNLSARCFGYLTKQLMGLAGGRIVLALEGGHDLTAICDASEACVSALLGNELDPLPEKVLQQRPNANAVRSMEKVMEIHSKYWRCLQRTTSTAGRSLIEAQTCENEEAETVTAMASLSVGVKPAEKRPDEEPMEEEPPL
Sequence of Deacetylase, Histone 7 (Q8WUI4 whole entry): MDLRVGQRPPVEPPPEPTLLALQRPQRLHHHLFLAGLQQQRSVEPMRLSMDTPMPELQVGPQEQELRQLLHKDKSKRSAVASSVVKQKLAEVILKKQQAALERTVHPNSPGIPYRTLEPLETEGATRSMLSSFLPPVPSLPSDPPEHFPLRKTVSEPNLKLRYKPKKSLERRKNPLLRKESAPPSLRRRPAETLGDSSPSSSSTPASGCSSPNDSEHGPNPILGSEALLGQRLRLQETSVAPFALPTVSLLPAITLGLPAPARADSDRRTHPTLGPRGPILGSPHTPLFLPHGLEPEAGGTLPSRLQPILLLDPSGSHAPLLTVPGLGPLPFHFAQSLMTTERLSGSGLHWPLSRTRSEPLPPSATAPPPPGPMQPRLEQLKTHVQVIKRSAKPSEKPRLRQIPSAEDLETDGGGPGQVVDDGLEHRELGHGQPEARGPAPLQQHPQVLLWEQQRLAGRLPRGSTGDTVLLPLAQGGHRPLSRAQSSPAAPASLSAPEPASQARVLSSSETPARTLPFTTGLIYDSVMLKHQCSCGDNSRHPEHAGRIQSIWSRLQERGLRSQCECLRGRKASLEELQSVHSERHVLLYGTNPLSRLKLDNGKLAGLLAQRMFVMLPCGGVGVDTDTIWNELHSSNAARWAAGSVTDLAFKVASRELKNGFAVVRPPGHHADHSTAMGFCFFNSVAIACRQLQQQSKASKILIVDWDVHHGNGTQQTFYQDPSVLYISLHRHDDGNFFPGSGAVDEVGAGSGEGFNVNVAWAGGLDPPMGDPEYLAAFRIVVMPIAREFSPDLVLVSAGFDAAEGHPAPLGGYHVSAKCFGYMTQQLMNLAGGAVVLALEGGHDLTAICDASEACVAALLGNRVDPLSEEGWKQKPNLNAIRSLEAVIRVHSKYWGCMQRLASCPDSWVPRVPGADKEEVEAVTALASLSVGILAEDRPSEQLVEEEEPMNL
Sequence of Deacetylase, Histone 3 (O15379 whole entry): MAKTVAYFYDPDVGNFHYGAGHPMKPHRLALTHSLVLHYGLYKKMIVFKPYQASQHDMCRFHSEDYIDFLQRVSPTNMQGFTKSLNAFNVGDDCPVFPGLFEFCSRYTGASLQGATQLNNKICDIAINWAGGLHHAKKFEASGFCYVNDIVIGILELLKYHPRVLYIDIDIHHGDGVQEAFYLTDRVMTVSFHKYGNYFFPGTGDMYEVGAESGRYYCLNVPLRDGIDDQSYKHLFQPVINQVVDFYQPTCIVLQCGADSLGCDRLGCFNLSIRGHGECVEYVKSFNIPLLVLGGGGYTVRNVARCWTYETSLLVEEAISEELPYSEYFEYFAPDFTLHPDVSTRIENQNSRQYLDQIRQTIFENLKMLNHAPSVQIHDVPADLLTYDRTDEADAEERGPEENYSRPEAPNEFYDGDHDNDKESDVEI
Sequence of Deacetylase, Histone 3 (Q9Y618 395-489 partner limits assumed): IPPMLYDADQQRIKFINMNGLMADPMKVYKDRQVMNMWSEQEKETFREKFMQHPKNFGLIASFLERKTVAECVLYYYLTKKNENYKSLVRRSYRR

| Compound | remaining activity at 10 µM (Deacetylase, Histone 9) [%] | % Stimulation Relative to Control (H3K9 ac (increase)) [%] | remaining activity at 10 µM [1] [%] | remaining activity at 10 µM (Deacetylase, Histone 6) [%] | inhibition at 10 µM (SETDB1 (h)) [%] | % Control Response [2] [%] | remaining activity at 10 µM (Deacetylase, Histone 7) [%] | remaining activity at 10 µM (Histamine H4; [7]) [%] | remaining activity at 10 µM (Histamine H4; [8]) [%] | % Stimulation Relative to Control (H3K27 ac (increase)) [%] | remaining activity at 10 µM [3] [%] | remaining activity at 10 µM (Deacetylase, Histone 3) [%] | inhibition at 10 µM (TIP60(h)) [%] | remaining activity at 10 µM [4] [%] | remaining activity at 10 µM [5] [%] | remaining activity at 10 µM (Deacetylase, Histone 10) [%] | inhibition at 10 µM (NSD3/WHSC1L1 (h)) [%] | EC50 (SK-NEP-1 kidney; SK-NEP-1, Kidney) [nM] | GI50 (SK-NEP-1 kidney; [9]) [nM] | IC50 (SK-NEP-1 kidney; SK-NEP-1, Kidney) [nM] | further results |
| --- | --- | --- | --- | --- | --- | --- | --- | --- | --- | --- | --- | --- | --- | --- | --- | --- | --- | --- | --- | --- | --- |
| CC(C)=CCC[C@H](CO)[C@@H]1CC[C@@H](C)c2c1cc(C)c(O)c2O [Compound 1, 7,8,18-trihydroxyserrulat-14-ene] | -14 | −21 | 35 | 0 | 53 | 30 | 1 | 50 | 12 | −28 | 14 | -5 | 20 | 0 | 6 | 11 | -17 | 10 | 6 | 10 | remaining activity at 10 µM (Deacetylase, Histone 8): 29%; remaining activity at 10 µM (Deacetylase, Histone 4): 4%; remaining activity at 10 µM [6]: -6%; GI50 (SK-NEP-1 kidney; SK-NEP-1, read-out: GI50): 6.18 nM |
| CC(C)=CCC[C@@H]1C(O)Oc2c(C)cc(O)c3c2[C@H]1CC[C@H]3C (stereo partly drawn) [Compound 2, 5,18-epoxyserrulat-14-en-8,18-diol] | -13 | – | 18 | -17 | 43 | −28 | -16 | 16 | -1 | – | 5 | 25 | 10 | 26 | -3 | 9 | 11 | 60 | 60 | 60 | remaining activity at 10 µM (Deacetylase, Histone 8): 13%; remaining activity at 10 µM (Deacetylase, Histone 4): -5%; remaining activity at 10 µM [6]: -9%; GI50 (SK-NEP-1 kidney; SK-NEP-1, read-out: GI50): 60.6 nM |
| CC(C)=CCC[C@@H]1COc2c(C)cc(O)c3c2[C@H]1CC[C@H]3C [Compound 3, 5,18-epoxy-8-hydroxyserrulat-14-ene] | – | −8 | – | – | 52 | −1 | – | – | 10 | −25 | – | – | -3 | – | – | – | -35 | – | – | – | – |
| CC(C)=CCC[C@H](C)[C@@H]1CC[C@@H](C)c2c1cc(C)c(O)c2O [Compound 4, 7,8-dihydroxyserrulat-14-ene] | – | – | – | – | – | – | – | – | – | – | – | – | – | – | – | – | – | 9620 | 9620 | 9630 | – |
| Nc1ncnc2c1ncn2[C@@H]1O[C@H](CSCC[C@H](N)C(=O)O)[C@@H](O)[C@H]1O [SAH] | – | – | – | – | – | – | – | – | – | – | – | – | – | – | – | – | – | – | – | – | IC50 (SETDB1 (h); read-out: Reference IC50): 1800 nM |
